Laboratory results reported in patent publication US9360486B2, “Allergen fragments” (Biomay AG, priority 2007, dated 2016).

Tested on: Amb a 1-specific T cell lines (TCL)
Assay: T cell epitope mapping of Amb a 1.3: proliferation (3H-thymidine uptake) of TCL stimulated with synthetic peptides
Type: cell-based, human
Details: for No. positive patients SI > 3 / No. positive patients SI > 5 / % (positive patients SI > 3) / % (positive patients SI > 5): TCL from 48 ragweed pollen-allergic patients, peptide 5 μg/ml; for No. positive patients SI > 3 / No. positive patients SI > 5: 3H-thymidine uptake after 48 hrs; for No. positive patients SI > 3 / % (positive patients SI > 3): stimulation index > 3; for No. positive patients SI > 5 / % (positive patients SI > 5): stimulation index > 5; for T cell activating region recognized by % of patients: classes of prevalence referring to SI>5, 48 TCL
Source text: The T cell response to Amb a 1 was characterized in detail using the established in vitro culture system (Jahn-Schmid et al., J. Immunol. 169: 6005-11, 2002; Jahn-Schmid et al., J. Allergy Clin. Immunol., 115: 399-404, 2005). In total, 85 clinically well-defined patients (75 from Vienna/10 from Milano) with typical case history, positive skin prick test and CAP/RAST tests for ragweed extract were included.
Peripheral blood mononuclear cells (PBMC) were isolated from heparinized blood of allergic patients by Ficoll density gradient centrifugation. To generate allergen-specific T cell lines (TCL) and T cell clones (TCC), 1.5×10^6 PBMC were stimulated with optimal doses of ragweed or mugwort extract (4 μg/ml) or rAmb a 1.3 (10 μg/ml) in 24-well flat-bottomed culture plates (Costar, USA). After 5 days human rIL-2 (10 U/ml, Boehringer, Mannheim, Germany) were added and cultures were continued for additional 7 days. Then, T cell blasts were isolated by density centrifugation. The majority of T cell blasts was further expanded with IL-2 and irradiated PBMC. A small number of T cell blasts were used to establish monoclonal T cell cultures by limiting dilution: 0.3 T cells/well were seeded into 96 well round bottom plates (Nunclone) in the presence of 2×10^5 irradiated (60 Gy) PBMC, 0.25% v/v PHA (Gibco, USA) and rIL-2 (4 U/well) in the medium mentioned above. After 14-21 days, growing microcultures were expanded at weekly intervals with irradiated PBMC and rIL-2. The specificity of TCC was assessed in proliferation assays using irradiated allogeneic or HLA-matched PBMC or irradiated EBV-transformed allogeneic B-cells and 5 μg/ml Amb a 1.3. After 48 hours, cellular uptake of tritiated (^3H)-thymidine was performed to measure proliferation in counts per minute (cpm). When the stimulation index (SI; ratio between cpm obtained in cultures containing TCC plus autologous APC plus antigen, and cpm obtained in cultures containing TCC and APC alone) was >10, responses were considered as positive. Allergen-specific TCC were expanded by alternating turns of stimulation with autologous irradiated APC and allergen or with allogeneic feeder cells and rIL-2.
Amb a 1-specific TCL and TCC were used to identify T cell epitopes of Amb a 1.3. T cell cultures were stimulated with a panel of 121 synthetic 12-mer peptides and one 13-mer representing the C-terminal peptide of Amb a 1.3 (Pepset, Biotrend, Germany). Peptides had been synthesized according to the Amb a 1.3 amino acid sequence and overlapped for 9 amino acid residues with the neighbouring peptides (Table 1). Peptides were used at a concentration of 5 μg/ml for stimulation and proliferation of T cell cultures was determined after 48 hrs by ^3H-thymidine-uptake. Because of the frequently observed high background caused by auto-reactivity in TCL, the mean of the cpm observed with the ten least stimulating peptides (none of the peptides was toxic) was used as negative control in calculations of SI. Throughout this manuscript, a peptide comprised one T cell epitope when the stimulation index was at least 3.0.
T cell epitope mapping of Amb a 1.3 was performed evaluating 48 TCL from different patients ([…]), which had been initiated with ragweed extract (containing the natural allergen) or rAmb a 1.3 (Table 2). TCL induced with either ragweed extract or rAmb a 1.3 from the same individual recognized similar T cell epitopes (Table 2; FIG. 7). […] Therefore, their data were combined for further analysis (Table 3). Typical for many inhalant allergens, multiple T cell activating regions were detected in Amb a 1.3. The number of peptides recognized by T cells from a single individual ranged from 2 to maximum 60 peptides with a mean of 17.8 peptides (median=16/for SI>3; resp. 0-36/11.9/12 for SI>5) (see Table 3). In total, 26 relevant (i.e. recognized by ≧10% of patients studied) T cell activating regions comprising 12-18 aa were identified. […]

Sequence	T cell reactivity with samples from individuals suffering from ragweed pollen allergy	reactivity with T cells isolated from allergic individuals	No. positive patients SI > 3	No. positive patients SI > 5	% (positive patients SI > 3) [%]	% (positive patients SI > 5) [%]	T cell activating region recognized by % of patients
GMIKSNDGPPIL (Amb a 1 fragment) [Peptide 52]	high T cell reactivity	reactivity with T cells	31	27	64.6	56.3	recognized by 56.3%
EGTLRFAAAQNRPLW (Amb a 1 fragment) [Peptide 27-28]	–	reactivity with T cells	–	–	–	–	recognized by 22.9%
DKDLLENGAIFVTSGSDPVLTPVQ (Amb a 1 fragment) [Peptide 107-111]	–	reactivity with T cells	–	–	–	–	–
LDDDVANPKEGT (Amb a 1 fragment) [Peptide 24]	–	–	2	1	4.2	2.1	–
DCAQGFAKGTYG (Amb a 1 fragment) [Peptide 16]	–	–	2	0	4.2	0.0	–
SAGMIPAEPGEA (Amb a 1 fragment) [Peptide 115]	–	reactivity with T cells	18	17	37.5	35.4	–
GSSQIWIDHCSL (Amb a 1 fragment) [Peptide 60]	–	reactivity with T cells	30	28	62.5	58.3	–
SKAILLGADDTH (Amb a 1 fragment) [Peptide 73]	–	–	4	2	8.3	4.2	–
SDKTIDGRGVKVEIINGG (Amb a 1 fragment) [Peptide 38-40]	–	reactivity with T cells	–	–	–	–	recognized by 33.3%
NPKEGTLRFAAA (Amb a 1 fragment) [Peptide 26]	–	–	0	0	0.0	0.0	–
AAAQNRPLWIIF (Amb a 1 fragment) [Peptide 29]	–	–	4	3	8.3	6.3	–
AEPGEAAIKLTS (Amb a 1 fragment) [Peptide 117]	–	–	4	3	8.3	6.3	–
SKSFDGLVDVTL (Amb a 1 fragment) [Peptide 64]	–	–	3	1	6.3	2.1	–
NLNQELVVNSDK (Amb a 1 fragment) [Peptide 35]	–	–	1	1	2.1	2.1	–
VNNNYDRWGTYAIGG (Amb a 1 fragment) [Peptide 88-89]	–	reactivity with T cells	–	–	–	–	recognized by 12.5%
TSGSDPVLTPVQ (Amb a 1 fragment) [Peptide 111]	–	reactivity with T cells	16	11	33.3	22.9	–

Sequence	T cell reactivity with samples from individuals suffering from ragweed pollen allergy	reactivity with T cells isolated from allergic individuals	No. positive patients SI > 3	No. positive patients SI > 5	% (positive patients SI > 3) [%]	% (positive patients SI > 5) [%]	T cell activating region recognized by % of patients
EILPSVNETRSL (Amb a 1 fragment) [Peptide 3]	–	–	1	0	2.1	0.0	–
KSNDGPPILRQA (Amb a 1 fragment) [Peptide 53]	–	reactivity with T cells	5	0	10.4	0.0	–
EIINGGLTLMNV (Amb a 1 fragment) [Peptide 42]	–	reactivity with T cells	11	5	22.9	10.4	recognized by 10.4%
LATVAFNMFTDN (Amb a 1 fragment) [Peptide 79]	–	reactivity with T cells	5	2	10.4	4.2	–
NIIDKCWRGKAD (Amb a 1 fragment) [Peptide 9]	–	–	3	2	6.3	4.2	–
GEAAIKLTSSAGVLSCRP (Amb a 1 fragment) [Peptide 118-120]	–	reactivity with T cells	–	–	–	–	recognized by 20.8%
IGGSSAPTILCQ (Amb a 1 fragment) [Peptide 92]	–	–	3	2	6.3	4.2	–
TYAIGGSSAPTI (Amb a 1 fragment) [Peptide 91]	high T cell reactivity	reactivity with T cells	13	11	27.1	22.9	recognized by 22.9%
WENNRQALADCA (Amb a 1 fragment) [Peptide 13]	–	–	2	0	4.2	0.0	–
ISNCKFTQQSKA (Amb a 1 fragment) [Peptide 70]	–	–	1	1	2.1	2.1	–
PVQSAGMIPAEPGEA (Amb a 1 fragment) [Peptide 114-115]	–	reactivity with T cells	–	–	–	–	recognized by 35.4%
TYGGKWGDVYTV (Amb a 1 fragment) [Peptide 19]	–	–	2	0	4.2	0.0	–
MVINLNQELVVN (Amb a 1 fragment) [Peptide 34]	–	–	2	2	4.2	4.2	–
NRQALADCAQGF (Amb a 1 fragment) [Peptide 14]	–	–	4	0	8.3	0.0	–
LVDVTLGSTHVT (Amb a 1 fragment) [Peptide 66]	–	–	4	4	8.3	8.3	–
